Experimental data: ChEMBL document CHEMBL5625202, “Synthesis, characterization and anti-breast cancer activities of stachydrine derivatives” (Eur J Med Chem, 2023)
Activity calls are given as the source filed them. The calls are words filed in the database; no cut-off is given here.

Key:
4T1 [1] = test: Anticancer activity against mouse 4T1 cells assessed as inhibition of cell growth incubated for 24 hrs by CCK-8 assay; assay type: functional, cell-based; details: 4T1, 24 h
4T1 [2] = test: Anticancer activity against mouse 4T1 cells assessed as inhibition of cell growth incubated for 48 hrs by CCK-8 assay; assay type: functional, cell-based; details: 4T1, 48 h
4T1 [3] = test: Anticancer activity against mouse 4T1 cells assessed as inhibition of cell growth incubated for 72 hrs by CCK-8 assay; assay type: functional, cell-based; details: 4T1, 72 h
4T1 [4] = test: Induction of apoptosis in mouse 4T1 cells assessed as apoptotic rate at 1000 micromol/L incubated for 24 hrs by Annexin-V/PI staining based flow cytometry relative to control; assay type: functional; details: dose 1000 µmol/L, at 1000 µM
4T1 [5] = test: Induction of apoptosis in mouse 4T1 cells assessed as apoptotic rate at 4000 micromol/L incubated for 24 hrs by Annexin-V/PI staining based flow cytometry relative to control; assay type: functional; details: dose 4000 µmol/L, at 4000 µM
4T1 [6] = test: Induction of apoptosis in mouse 4T1 cells assessed as apoptotic rate at 8000 micromol/L incubated for 24 hrs by Annexin-V/PI staining based flow cytometry relative to control; assay type: functional; details: dose 8000 µmol/L, at 8000 µM
4T1 [7] = test: Induction of mitochondrial membrane potential loss in mouse 4T1 cells assessed as green fluorescence at 4000 uM incubated for 24 hrs by JC-1 staining based flow cytometric analysis (reference value: 11.7%); assay type: cell-based
4T1 [8] = test: Induction of mitochondrial membrane potential loss in mouse 4T1 cells assessed as red fluorescence at 4000 uM incubated for 24 hrs by JC-1 staining based flow cytometric analysis (Rvb= 87.9%); assay type: cell-based
[9] = Toxicity in BALB/c mouse implanted with mouse 4T1 cells assessed as change in lung histopathology at 0.2 mmol/Kg, po administered once every day for 14 days; assay type: organism-based; details: in vivo, 336 h, time 14 day
[10] = Toxicity in BALB/c mouse implanted with mouse 4T1 cells assessed as increase in white blood cells at 0.2 mmol/Kg, po administered once every day for 14 days by routine blood analysis; assay type: organism-based; details: in vivo, 336 h, time 14 day
4T1 [11] = test: Antitumor activity against mouse 4T1 cells implanted in BALB/c mouse assessed as tumor growth inhibition at 0.2 mmol/Kg, po administered once every day for 14 days relative to control; assay type: functional; details: 4T1, 336 h, time 14 day, read-out: TGI
4T1 [12] = test: Antitumor activity against mouse 4T1 cells implanted in BALB/c mouse assessed as tumor cell shrinkage at 0.2 mmol/Kg, po administered once every day for 14 days by histological staining based analysis; assay type: functional, organism-based; details: time 14.0 day
[13] = Toxicity in BALB/c mouse implanted with mouse 4T1 cells assessed as body weight loss at 0.2 mmol/Kg, po administered once daily for 14 days; assay type: organism-based; details: in vivo, 336 h, time 14 day
[14] = Toxicity in BALB/c mouse implanted with mouse 4T1 cells assessed as increase in lymphocytes at 0.2 mmol/Kg, po administered once every day for 14 days by routine blood analysis; assay type: organism-based; details: in vivo, 336 h, time 14 day
[15] = Toxicity in BALB/c mouse implanted with mouse 4T1 cells assessed as increase in neutrophil granulocytes at 0.2 mmol/Kg, po administered once every day for 14 days by routine blood analysis; assay type: organism-based; details: in vivo, 336 h, time 14 day
[16] = Toxicity in BALB/c mouse implanted with mouse 4T1 cells assessed as increase in monocytes at 0.2 mmol/Kg, po administered once every day for 14 days by routine blood analysis; assay type: organism-based; details: in vivo, 336 h, time 14 day
[17] = Toxicity in BALB/c mouse implanted with mouse 4T1 cells assessed as increase in AST level at 0.2 mmol/Kg, po administered once every day for 14 days by routine blood analysis; assay type: organism-based; details: in vivo, 336 h, time 14 day
[18] = Toxicity in BALB/c mouse implanted with mouse 4T1 cells assessed as increase in ALT level at 0.2 mmol/Kg, po administered once every day for 14 days by routine blood analysis; assay type: organism-based; details: in vivo, 336 h, time 14 day
[19] = Toxicity in BALB/c mouse implanted with mouse 4T1 cells assessed as effect on BUN level at 0.2 mmol/Kg, po administered once every day for 14 days by routine blood analysis; assay type: organism-based; details: in vivo, 336 h, time 14 day
[20] = Toxicity in BALB/c mouse implanted with mouse 4T1 cells assessed as effect on CREA level at 0.2 mmol/Kg, po administered once every day for 14 days by routine blood analysis; assay type: organism-based; details: in vivo, 336 h, time 14 day
[21] = Toxicity in BALB/c mouse implanted with mouse 4T1 cells assessed as reduction in spleen index at 0.2 mmol/Kg, po administered once every day for 14 days relative to control; assay type: organism-based; details: in vivo, 336 h, time 14 day
[22] = Toxicity in BALB/c mouse implanted with mouse 4T1 cells assessed as change in heart histopathology at 0.2 mmol/Kg, po administered once every day for 14 days; assay type: organism-based; details: in vivo, 336 h, time 14 day
[23] = Toxicity in BALB/c mouse implanted with mouse 4T1 cells assessed as change in liver histopathology at 0.2 mmol/Kg, po administered once every day for 14 days; assay type: organism-based; details: in vivo, 336 h, time 14 day
[24] = Toxicity in BALB/c mouse implanted with mouse 4T1 cells assessed as change in kidney histopathology at 0.2 mmol/Kg, po administered once every day for 14 days; assay type: organism-based; details: in vivo, 336 h, time 14 day
4T1 [25] = test: Antitumor activity against mouse 4T1 cells implanted in BALB/c mouse assessed as change in tumor weight at 0.2 mmol/Kg, po administered once every day for 14 days; assay type: functional, organism-based; details: time 14.0 day
[26] = Toxicity in BALB/c mouse implanted with mouse 4T1 cells assessed as increase in mean platelet volume at 0.2 mmol/Kg, po administered once every day for 14 days by routine blood analysis; assay type: organism-based; details: in vivo, 336 h, time 14 day
[27] = Toxicity in BALB/c mouse implanted with mouse 4T1 cells assessed as blurred spleen morphology at 0.2 mmol/Kg, po administered once every day for 14 days; assay type: organism-based; details: in vivo, 336 h, time 14 day
[28] = Toxicity in BALB/c mouse implanted with mouse 4T1 cells assessed as splenic edema at 0.2 mmol/Kg, po administered once every day for 14 days; assay type: organism-based; details: in vivo, 336 h, time 14 day
[29] = Toxicity in BALB/c mouse implanted with mouse 4T1 cells assessed as increase in splenic red pulp at 0.2 mmol/Kg, po administered once every day for 14 days; assay type: organism-based; details: in vivo, 336 h, time 14 day
[30] = Prodrug conversion in carboxylesterase (unknown origin) solution assessed as drug hydrolysis by measuring stachydrine release at 3 to 20 hrs; assay type: ADME, Homo sapiens; details: time 3-20 hrs
[31] = Prodrug conversion in cell culture medium containing 10% FBS assessed as drug hydrolysis by measuring stachydrine release at 3 to 20 hrs; assay type: ADME; details: cattle; time 3-20 hrs
[32] = Prodrug conversion in serum (unknown origin) assessed as drug hydrolysis by measuring stachydrine release at 3 to 20 hrs; assay type: ADME, cell-free; details: time 3-20 hrs
4T1 [33] = test: Antitumor activity against mouse 4T1 cells implanted in BALB/c mouse assessed as tumor cell necrosis at 0.2 mmol/Kg, po administered once every day for 14 days by histological staining based analysis; assay type: functional, organism-based; details: time 14.0 day
4T1 [34] = test: Induction of mitochondrial membrane potential loss in mouse 4T1 cells assessed as green fluorescence at 50 uM incubated for 24 hrs by JC-1 staining based flow cytometric analysis (reference value: 11.7%); assay type: cell-based
4T1 [35] = test: Induction of mitochondrial membrane potential loss in mouse 4T1 cells assessed as red fluorescence at 50 uM incubated for 24 hrs by JC-1 staining based flow cytometric analysis (reference value: 87.9%); assay type: cell-based
4T1 [36] = test: Induction of apoptosis in mouse 4T1 cells assessed as apoptotic rate at 0.04 micromol/L incubated for 24 hrs by Annexin-V/PI staining based flow cytometry relative to control; assay type: functional; details: dose 0.04 µmol/L, at 0.04 µM
4T1 [37] = test: Induction of apoptosis in mouse 4T1 cells assessed as apoptotic rate at 0.3 micromol/L incubated for 24 hrs by Annexin-V/PI staining based flow cytometry relative to control; assay type: functional; details: dose 0.3 µmol/L, at 0.3 µM
4T1 [38] = test: Induction of apoptosis in mouse 4T1 cells assessed as apoptotic rate at 2 micromol/L incubated for 24 hrs by Annexin-V/PI staining based flow cytometry relative to control; assay type: functional; details: dose 2 µmol/L, at 2 µM
4T1 [39] = test: Induction of apoptosis in mouse 4T1 cells assessed as apoptotic rate at 50 micromol/L incubated for 24 hrs by Annexin-V/PI staining based flow cytometry relative to control; assay type: functional; details: dose 50 µmol/L, at 50 µM
4T1 [40] = test: Induction of apoptosis in mouse 4T1 cells assessed as apoptotic rate at 250 micromol/L incubated for 24 hrs by Annexin-V/PI staining based flow cytometry relative to control; assay type: functional; details: dose 250 µmol/L, at 250 µM
4T1 [41] = test: Induction of mitochondrial membrane potential loss in mouse 4T1 cells assessed as green fluorescence at 250 uM incubated for 24 hrs by JC-1 staining based flow cytometric analysis (reference value: 11.7%); assay type: cell-based
4T1 [42] = test: Induction of mitochondrial membrane potential loss in mouse 4T1 cells assessed as red fluorescence at 250 uM incubated for 24 hrs by JC-1 staining based flow cytometric analysis (Rvb= 87.9%); assay type: cell-based
4T1 [43] = test: Inhibition of cell migration in mouse 4T1 cells assessed as reduction in wound healing incubated for 24 hrs by microscopic analysis; assay type: functional, cell-based

## CCCCOC(=O)C1CCC[N+]1(C)C.[Cl-] (stereo not drawn)
4T1 [1]
  IC50: 6380 µM
4T1 [2]
  IC50: 6310 µM
4T1 [3]
  IC50: 5170 µM
4T1 [4]
  Activity: 29.06%
4T1 [5]
  Activity: 39.8%
4T1 [6]
  Activity: 51.28%
4T1 [7]
  Activity: 38.9%
4T1 [8]
  Activity: 60.9%
[9]
  Activity: Non-Toxic
[10]
  Activity: Non-Toxic
4T1 [11]
  inhibition in vivo at 200 µmol/kg: 45.1%
4T1 [12]
  Activity: Active
[13]
  Activity: Toxic
[14]
  Activity: Non-Toxic
[15]
  Activity: Non-Toxic
[16]
  Activity: Non-Toxic
[17]
  Activity: Toxic
[18]
  Activity: Toxic
[19]
  Activity: Non-Toxic
[20]
  Activity: Non-Toxic
[21]
  Activity: Toxic
[22]
  Activity: Non-Toxic
[23]
  Activity: Non-Toxic
[24]
  Activity: Non-Toxic
4T1 [25]
  Activity: Active
[26]
  Activity: Non-Toxic
[27]
  Activity: Toxic
[28]
  Activity: Toxic
[29]
  Activity: Toxic
[30]
  Drug metabolism: Metabolite_Detected
[31]
  Drug metabolism: Metabolite_Detected
[32]
  Drug metabolism: Metabolite_Detected
4T1 [33]
  Activity: Active

## CCCCCCCCCCCCCCCCCCOC(=O)C1CCC[N+]1(C)C (stereo not drawn)
4T1 [1]
  IC50: 2.42 µM
4T1 [2]
  IC50: 2.73 µM
4T1 [3]
  IC50: 2.01 µM

## N#CC(C#N)=NNc1cccc(Cl)c1
4T1 [34]
  Activity: 48.4%
4T1 [35]
  Activity: 51.1%

## CCCCCCCCCCCCCCCCOC(=O)C1CCC[N+]1(C)C.[Cl-] (stereo not drawn)
4T1 [1]
  IC50: 0.858 µM
4T1 [2]
  IC50: 0.701 µM
4T1 [3]
  IC50: 0.341 µM
4T1 [36]
  Activity: 52%
4T1 [37]
  Activity: 62.1%
4T1 [38]
  Activity: 72%
[30]
  Drug metabolism: Metabolite_Detected
[31]
  Drug metabolism: Metabolite_Detected
[32]
  Drug metabolism: Metabolite_Detected

## CCCCCCCCCCCCCCOC(=O)C1CCC[N+]1(C)C (stereo not drawn)
4T1 [1]
  IC50: 165 µM
4T1 [2]
  IC50: 166 µM
4T1 [3]
  IC50: 57 µM

## CCCCCCCCOC(=O)C1CCC[N+]1(C)C.[Cl-] (stereo not drawn)
4T1 [1]
  IC50: 508 µM
4T1 [2]
  IC50: 249 µM
4T1 [3]
  IC50: 140 µM
4T1 [4]
  Activity: 80.8%
4T1 [39]
  Activity: 36.82%
4T1 [40]
  Activity: 69.9%
4T1 [41]
  Activity: 53.5%
4T1 [42]
  Activity: 46.5%
4T1 [43]
  inhibition: Dose-Dependent Effect
[9]
  Activity: Non-Toxic
[10]
  Activity: Non-Toxic
4T1 [11]
  inhibition in vivo at 200 µmol/kg: 51.5%
4T1 [12]
  Activity: Active
[13]
  Activity: Toxic
[14]
  Activity: Non-Toxic
[15]
  Activity: Non-Toxic
[16]
  Activity: Non-Toxic
[17]
  Activity: Toxic
[18]
  Activity: Toxic
[19]
  Activity: Non-Toxic
[20]
  Activity: Non-Toxic
[21]
  Activity: Toxic
[22]
  Activity: Non-Toxic
[23]
  Activity: Non-Toxic
[24]
  Activity: Non-Toxic
4T1 [25]
  Activity: Active
[26]
  Activity: Non-Toxic
[27]
  Activity: Toxic
[28]
  Activity: Toxic
[29]
  Activity: Toxic
[30]
  Drug metabolism: Metabolite_Detected
[31]
  Drug metabolism: Metabolite_Detected
[32]
  Drug metabolism: Metabolite_Detected
4T1 [33]
  Activity: Active

## CCOC(=O)C1CCC[N+]1(C)C (stereo not drawn)
4T1 [1]
  IC50: 1710 µM
4T1 [2]
  IC50: 14000 µM
4T1 [3]
  IC50: 7890 µM

## CCCCCCCCCCOC(=O)C1CCC[N+]1(C)C (stereo not drawn)
4T1 [1]
  IC50: 204 µM
4T1 [2]
  IC50: 136 µM
4T1 [3]
  IC50: 98 µM

## CCCCCCOC(=O)C1CCC[N+]1(C)C (stereo not drawn)
4T1 [1]
  IC50: 2550 µM
4T1 [2]
  IC50: 1560 µM
4T1 [3]
  IC50: 1100 µM
